Experimental data published in patent publication US20260335205A1, “ACTIVE AGENT MODULATING THE ACTIVITY OF AN ION CHANNEL FOR USE IN REGULATION OF SKIN PIGMENTATION” (priority 2022, published 2026).

Columns and labels:
gp100 = experiment: gp100-specific immunoreactivity (immunohistochemistry, quantitative histomorphometry) in ex vivo human skin organ culture; assay type: cell-based; conditions: after 3 days
Description: (§1) Samples of human abdominal, temporal, and occipital skin were obtained with written patient consent and under ethical approval from healthy adult human subjects during elective plastic surgery performed for cosmetic reasons. Full-thickness human skin samples were prepared as 4-6 mm punches, placed on filter paper, and cultured at the air-liquid interphase under serum-free conditions in William's E medium supplemented only with insulin, hydrocortisone and L-glutamine, as described previously.
For topical application of menthol (Sigma), a TRPM8 activator, a stock (5 M) was prepared in ethanol and dissolved at 37 °C at a final concentration of 1 mM in a 30% v/v solution of Polyethylene glycol 6000 (Sigma) in ethanol. […]
After consecutive rinses in PBS, samples were incubated with rhodamine-conjugated secondary antibody (Jackson ImmunoResearch) diluted 1:200 in normal goat serum (2% in PBS) for 45 minutes at RT. […] Image acquisition and quantitative histomorphometric analysis were performed similar to as described for the Warthin-Starry technique, with a special emphasis on assessing the relative intensity and the area of gp100-specific immunoreactivity (IR) in the basal epidermal layer (i.e., the epidermal compartment where melanocytes reside).

[1] = test system: epidermal melanin content in human skin organ culture; experiment: Epidermal melanin content (Warthin-Starry / Fontana Masson histochemistry, quantitative histomorphometry) in ex vivo human skin organ culture; assay type: cell-based
Description: as §1
For topical application of menthol (Sigma), a TRPM8 activator, a stock (5 M) was prepared in ethanol and dissolved at 37 °C at a final concentration of 1 mM in a 30% v/v solution of Polyethylene glycol 6000 (Sigma) in ethanol. For topical application of N-(3-Aminopropyl)-2-[(3-methylphenyl)methoxy]-N-(2-thienylmethyl)benzamide hydrochloride (AMTB) (Sigma), an TRPM8 inhibitor, a stock (50 mM) was prepared in water and dissolved at 37 °C at a final concentration of 10 μM in a 30% v/v solution of Polyethylene glycol 6000 (Sigma) in ethanol. Two μL droplets of this viscous solution containing menthol (1 mM), AMTB (10 μM), their combination, or ethanol as vehicle control were applied daily (up to 3 days) to the epidermis of skin biopsies.
Histochemical visualization of melanin in skin sections was performed using the Warthin-Starry Stain Kit (Abcam) or Fontana Masson histochemistry. For Warthin-Starry histochemistry, formalin-fixed human skin/HF frozen sections were rinsed in distilled water and incubated with AgNO3(0.5 % in acidulated water) for 30 seconds at 50 °C. Next, the sample was incubated with developer solution (0.42% AgNO3, 5% Gelatin, and 0.15% hydroquinone in acidulated water) and incubated for 2-5 minutes at 50 °C. The reaction was stopped by consecutive rinses in hot (60 °C) tap water for 2 minutes. Incubation with Na2S2O3 (5 % in distilled water) for 1 minute, followed by 3 minutes of consecutive washes in tap water can also be used to remove unbound AgNO3 and to tone the brown coloring of melanin black. Brief counterstain with hematoxylin was used to visualize nuclei. […]
Images were then obtained with a digital microscope (Keyence). Quantitative histomorphometric analysis was performed by assessing the relative intensity and the area of melanin stain in standardized reference areas with ImageJ (NIH; Bethesda, MD, USA). Briefly, for each parameter evaluated, multiple non-consecutive skin sections (at least 280 μm apart from each other) per punch biopsy were stained. Two skin punch biopsies were analyzed per experimental group unless indicated otherwise. The melanin content was then calculated based on the product of the fraction of area occupied by melanin and the mean shade of gray of the melanin, as described in detail elsewhere. […]

tyrosinase = experiment: In situ tyrosinase activity (quantitative histomorphometry) in ex vivo human skin organ culture; assay type: cell-based; conditions: after 3 days
Description: as §1, with “previously. […]” for “previously.”
For the in situ detection of tyrosinase activity (the enzyme that catalyzes the rate-limiting step of melanin synthesis), human skin cryosections were fixed in an acetone/methanol solution (1:1 ratio) and blocked with H2O2 (0.3 % in PBS) for 15 minutes. […] Tyrosinase activity was detected with the TSA™ Biotin System (Akoya Biosciences). […]
Image acquisition and quantitative histomorphometric analysis were performed similar to as described for the Warthin-Starry technique, with a special emphasis on assessing the relative intensity and the area of tyrosinase activity-specific immunoreactivity (IR) in the basal epidermal layer (i.e., the epidermal compartment where melanocytes reside).

melanocyte tyrosinase = conditions: background, phenolic compounds (e.g., hydroquinone and derivatives); cited from earlier work
[2] = background; cited from earlier work
[3] = topical menthol 1 mM, after 3 days, vs vehicle, Warthin-Starry (FIG. 1)

With `Cc1cccc(COc2ccccc2C(=O)N(CCCN)Cc2cccs2)c1.Cl` [AMTB, N-(3-Aminopropyl)-2-[(3-methylphenyl)methoxy]-N-(2-thienylmethyl)benzamide hydrochloride] the “prevention of menthol-induced increase of gp100-specific IR in the basal epidermal layers” value (gp100; topical AMTB 10 μM with menthol 1 mM, vs vehicle (FIG. 5)) was “prevented the effect of the TRPM8 agonist menthol (1 mM) to increase gp100-specific IR in the basal epidermal layers”, the “prevention of menthol-induced increase of epidermal melanin content” value ([1]; topical AMTB 10 μM with menthol 1 mM, after 3 days, vs vehicle, Warthin-Starry (FIG. 4)) was “prevented the effect of the TRPM8 agonist menthol (1 mM) to increase epidermal melanin content” and the “prevention of menthol-induced increase of tyrosinase activity in the basal epidermal layers” value (tyrosinase; topical AMTB 10 μM with menthol 1 mM, vs vehicle (FIG. 6)) was “prevented the effect of the TRPM8 agonist menthol (1 mM) to increase tyrosinase activity in the basal epidermal layers”.
For `Oc1ccc(O)cc1` [hydroquinone], the “inhibition of melanocyte tyrosinase” value (melanocyte tyrosinase) is listed as “shown to inhibit melanocyte tyrosinase”, the DNA damage [2] is listed as “shown to cause DNA damage” and the chronic adverse effects [2] is listed as “contact dermatitis, sclera and nail hyperpigmentation, impaired wound healing”.
In the case of `CC1CCC(C(C)C)C(O)C1` (centres unmarked) [menthol], the “intensity level of gp100-specific IR in the basal epidermal layers” value (gp100; topical menthol 1 mM, vs vehicle (FIG. 2)) is reported as “markedly increases the intensity level of gp100-specific IR in the basal epidermal layers”, the epidermal melanin content [1, 3] is reported as “markedly increases epidermal melanin content” and the “melanin content in basal and suprabasal layers” value [1, 3] is reported as “increased the melanin content not only in the basal layer (i.e., the epidermal compartment where melanocytes reside) but also in the suprabasal layers”. For the same molecule, the “epidermal melanin content verified by two independent histochemical technologies” value ([1]; topical, human ex vivo skin organ cultures) was “upregulated epidermal melanin content” and the “intensity level of tyrosinase activity in the basal epidermal layers” value (tyrosinase; topical menthol 1 mM, vs vehicle (FIG. 3)) was “markedly increases the intensity level of tyrosinase activity in the basal epidermal layers”.
